Measurements published in patent US12296024B2, “Modified zinc oxide nanocomposite, antibiotic composition comprising the same, and combination preparation with the same” (UIF (University Industry Foundation), Yonsei University, priority 2021, dated 2025).

System: Aspergillus spores
Experiment: Effect of ions on fungal growth
Assay type: cell-based
Conditions: 1000 Aspergillus spores/dish, 37° C., day 3 of culture, FIG. 8B
Description: To investigate the effect of ions on fungal growth, salt solutions were added at a high molecular concentration (0.1 M, 10 μL) and a low molecular concentration ([…], 10 μL) and fungi were cultured at 37° C. under conditions of 1000 Aspergillus spores/dish. The results are illustrated in FIG. 8B based on the colonies on day 3 of culture.

| SMILES | effect of ions on fungal growth compared with Na+, Mg2+ or NH4+ ions |
| --- | --- |
| O=[N+]([O-])[O-].O=[N+]([O-])[O-].[Zn+2] [Zn(NO3)2] | greater effect |
| [Cl-].[Cl-].[Zn+2] [ZnCl2] | greater effect |
